Experimental data published in patent US5248673A, “Bisamidine derivatives as thrombin inhibitors” (Bristol-Myers Squibb Co., priority 1992, dated 1993).
Counter-ions that a name gives are not always drawn. Like-named read-outs stand apart in the source and are kept apart here.

Columns and labels:
[1] = biological target: T1, human α-thrombin (Homo sapiens, UniProt P00734); experiment: Enzyme assay for the inhibition of thrombin (s-2238 chromogenic substrate); format: biochemical; details: Table I, determined graphically from Dixon plots, room temperature, pH 7.4, substrate s-2238
T1 construct: purified human α-thrombin
Description: Enzyme Assays for the Inhibition of Thrombin The following reagents were used in these assays: […] Inhibitors to be tested were dissolved in H2 O, methanol, or DMSO just prior to use. To each well in a 96-well microtiter plate, 270 μl of assay buffer was added. […] The samples were incubated at room temperature for a defined period of time (3 minutes for initial IC50 determinations). The enzymatic reaction was started with 10 μl of 3 mM s-2238 substrate and continued at room temperature. The change in optical density was measured at 405 nm. A kinetic microplate reader (Molecular Devices Corporation .nu.max) was used to measure the change in optical density over time. Table I lists the Ki values for different compounds, Ki value is determined graphically from Dixon plots (plots of reciprocal enzyme velocity i/v vs. linear function of inhibitor concentration at various enzyme substrate concentrations). This methodology is well known in the art.

[2] = biological target: T1, human α-thrombin; experiment: Concentration required for doubling thrombin clotting time (clotting time assay in human plasma); format: biochemical; details: Table II; human citrated plasma, 10 U/ml human thrombin; read-out: DTT (concentration of drug which caused a doubling of the thrombin clotting time)
Description: Procedure for Determining the Concentration Required for Doubling Thrombin Clotting Time--Clotting Time Assays
The following reagents were used in these assays:
The blood was centrifugated at […]. The plasma was removed, pooled, and aliquoted into small tubes which were stored frozen for later use.
Clotting times were determined by pipetting 0.1 ml of Owren's buffer (pre-warmed to 37° C.) and 0.1 ml of human or rat plasma into yellow sample cuvettes. For studies with human plasma 10 U/ml human thrombin (10 ml) was placed in the reservoir assembly station of the MLA 700. (Medical Laboratory Automation, Electra 700 Reservoir Assembly). For rat studies, the human thrombin concentration was 25 U/ml. The cuvettes were vortexed and then placed on the MLA 700 sample wheel. The coagulation timer (MLA 700) automatically dispenses 0.1 ml human thrombin into the sample in each cuvette. Detection of the fibrin clot was determined optically by the MLA 700.
Studies were performed to determine the concentration of drug which caused a doubling of the clotting time (DTT) in human plasma.

| Ki ([1]; read-out: Ki) | IC (2-fold clotting time) [2] | Ki [1] | SMILES |
| --- | --- | --- | --- |
| 3.2 µM | – | – | CN(C)c1cccc2c(S(=O)(=O)NC(CCCNC(=N)C(=N)N)C(=O)N3CCCCC3)cccc12 (stereo not drawn) [Compound 7a, 1-[5-[(2-amino-1,2-diminoethyl)amino]-2-[[[5-(dimethylamino)-1-naphthalene]amino]-1-oxopentyl]piperidine hydrochloride] |
| 4 µM | – | – | CC1CCN(C(=O)C(CCNC(=N)C(=N)N)NS(=O)(=O)c2cccc3c(N(C)C)cccc23)CC1 (stereo not drawn) [Compound 7b] |
| 0.33 µM | – | – | CC1CCN(C(=O)C(CCCNC(=N)C(=N)N)NS(=O)(=O)c2cccc3c(N(C)C)cccc23)CC1 (stereo not drawn) [Compound 7c, 1-[5-[(2-amino-1,2-diiminoethyl)amino]-2-[[[5-(dimethylamino)-1-naphthalenyl]sulfonyl]amino]-1-oxopentyl]-4-methylpiperidine trihydrochloride hydrate] |
| 0.3 µM | – | – | CCC1CCN(C(=O)C(CCCNC(=N)C(=N)N)NS(=O)(=O)c2cccc3c(N(C)C)cccc23)CC1 (stereo not drawn) [Compound 7d, 1-[5-[(2-amino-1,2-diiminoethyl)amino]-2-[[[5-(dimethylamino)-1-naphthalenyl]sulfonyl]amino]-1-oxopentyl]-4-ethylpiperidine trihydrochloride hydrate] |
| 2 µM | 4 µM | – | CN(C)c1cccc2c(S(=O)(=O)NC(CCCNC(=N)C(=N)N)C(=O)N3CCOCC3)cccc12 (stereo not drawn) [Compound 7e, 1-[5-[(2-amino-1,2-diiminoethyl)amino]-2-[[[5-(dimethylamino)-1-naphthalenyl]sulfonyl]amino]-1-oxopentyl]morpholine trihydrochloride hydrate] |
| 3 µM | – | – | CCCCN(CC(=O)OCC)C(=O)C(CCCNC(=N)C(=N)N)NS(=O)(=O)c1cccc2c(N(C)C)cccc12 (stereo not drawn) [Compound 7f, ethyl N-[5-[(2-amino-1,2-diiminoethyl)amino]-2-[[[5-(dimethylamino)-1-naphthalenyl]sulfonyl]amino]-1-oxopentyl]-N-butylglycinate trihydrochloride hydrate] |
| 0.4 µM | 1.8 µM | – | CN(C)c1cccc2c(S(=O)(=O)NC(CCCNC(=N)C(=N)N)C(=O)N3CCCCCC3)cccc12 (stereo not drawn) [Compound 7g, 1-[5-(2-amino-1,2-diiminoethyl)amino]-2-[[[5-(dimethylamino)-1-naphthalenyl]sulfonyl]amino]-1-oxopentyl]homopiperidine trihydrochloride hydrate] |
| – | > 300 µM | insol. | Cc1ccc(S(=O)(=O)NC(CNC(=N)C(=N)N)C(=O)N2CCCCC2)cc1 (stereo not drawn) [Compound 7h] |
| 80 µM | – | – | Cc1ccc(S(=O)(=O)NC(CCNC(=N)C(=N)N)C(=O)N2CCCCC2)cc1 (stereo not drawn) [Compound 7i] |
| 16 µM | – | – | Cc1ccc(S(=O)(=O)NC(CCCNC(=N)C(=N)N)C(=O)N2CCCCC2)cc1 (stereo not drawn) [Compound 7j] |
| 55 µM | 150 µM | – | Cc1ccc(S(=O)(=O)NC(CCCCNC(=N)C(=N)N)C(=O)N2CCCCC2)cc1 (stereo not drawn) [Compound 7k, 1-[6-[(2-amino-1,2-diiminoethyl)aminol]-2-[[(4-methylphenyl)sulfonyl]amino]-1-oxohexyl]piperidine dihydrochloride] |
| 18 µM | – | – | Cc1ccc(S(=O)(=O)NC(CCCNC(=N)C(=N)N)C(=O)N2CCC(C)CC2)cc1 (stereo not drawn) [Compound 7l, 1-[5-[2-(amino-1,2-diiminoethyl)amino]-2-[[(4-methylphenyl)sulfonyl]amino]-1-oxopentyl]-4-methylpiperidine hydrochloride] |
| 36 µM | – | – | N=C(N)C(=N)NCCC(NC(=O)CNS(=O)(=O)c1ccc2ccccc2c1)C(=O)N1CCCCC1 (stereo not drawn) [Compound 7m] |
| > 50 µM | – | – | N=C(N)C(=N)NCCCC(NC(=O)CNS(=O)(=O)c1ccc2ccccc2c1)C(=O)N1CCCCC1 (stereo not drawn) [Compound 7n] |
